# Assay results: patent publication US20230129326A1, “METHODS TO PREVENT SARS-COV-2 INFECTION AND TREAT COVID-19” (priority 2020, published 2023)
# “Also recorded” adds a separate entry of the source. Read-outs that look alike come from different tables or passages of the source.
# How the values were obtained:
# [1] = molecular target: ACE2 (Homo sapiens, UniProt Q9BYF1); assay type: biochemical
# [2] = molecular target: ACE2/SARS spike protein interaction (Homo sapiens, UniProt Q9BYF1); assay type: cell-based, SARS-CoV
# [3] = test system: SARS-CoV-2 virus (isolate USA-WA1/2020); assay: microbe, parasite or virus in culture; assay type: cell-based
# [4] = test system: SARS-CoV-2 infection; assay: Drug usage versus SARS-CoV-2 infection in UCSF Health population; assay type: in vivo; conditions: for Odds ratio: drug usage vs SARS-CoV-2 infection; for correlation of usage with protection from SARS-CoV-2 infection: statistically significant
# [5] = set-up: species or system mice; conditions: mouse, in vivo
# [6] = test system: SARS-CoV-2 Strain WA-1; set-up: species or system hACE2-transgenic mice; conditions: mouse, in vivo
# [7] = test system: SARS-CoV-2; assay: N protein copies by qPCR in VeroE6 cells infected with SARS-CoV-2; assay type: cell-based; conditions: VeroE6, MOI 0.01, 48 h; drug by itself
# [8] = test system: SARS-CoV-2 isolate USA-UF-1/2020; assay type: cell-based
# [9] = test system: SARS-CoV-2 isolate USA-UF-1/2020; assay: microbe, parasite or virus in culture; assay type: cell-based; conditions: for EC50: Severe acute respiratory syndrome coronavirus 2, Vero C1008, read-out: EC50, 50% inhibition of SARS-CoV-2 isolate USA-UF-1/2020 infection of Vero E6 cells
# [10] = Cytotoxicity (50% cytotoxic concentration); assay type: cell-based
# Sequence of ACE2/SARS spike protein interaction (Q9BYF1 18-805 limits assumed): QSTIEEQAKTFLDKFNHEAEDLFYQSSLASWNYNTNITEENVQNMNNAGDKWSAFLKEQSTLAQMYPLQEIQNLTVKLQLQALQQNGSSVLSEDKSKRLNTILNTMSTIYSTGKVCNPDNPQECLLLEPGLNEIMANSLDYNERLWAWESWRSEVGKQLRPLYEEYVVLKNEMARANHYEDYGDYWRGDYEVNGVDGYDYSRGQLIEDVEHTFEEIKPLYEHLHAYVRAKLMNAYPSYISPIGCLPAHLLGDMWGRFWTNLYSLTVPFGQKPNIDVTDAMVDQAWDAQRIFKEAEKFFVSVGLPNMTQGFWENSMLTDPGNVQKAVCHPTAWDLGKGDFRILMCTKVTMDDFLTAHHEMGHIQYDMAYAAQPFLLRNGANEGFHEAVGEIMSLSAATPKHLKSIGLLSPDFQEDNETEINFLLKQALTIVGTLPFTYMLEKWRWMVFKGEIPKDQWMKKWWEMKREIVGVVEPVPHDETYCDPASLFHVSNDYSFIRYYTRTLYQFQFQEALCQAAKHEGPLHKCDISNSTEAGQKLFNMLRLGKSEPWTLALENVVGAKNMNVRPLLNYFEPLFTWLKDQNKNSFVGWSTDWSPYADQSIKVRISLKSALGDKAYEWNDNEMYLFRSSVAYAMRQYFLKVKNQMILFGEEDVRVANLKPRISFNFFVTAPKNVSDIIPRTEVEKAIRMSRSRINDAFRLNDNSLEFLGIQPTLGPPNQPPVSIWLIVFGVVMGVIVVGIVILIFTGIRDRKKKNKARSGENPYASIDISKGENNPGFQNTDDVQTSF
# Sequence of ACE2 (Q9BYF1 18-805): as the sequence (Q9BYF1 18-805 limits assumed) above
molecule,measurement,setting,value
"NCCNCCN1CC1 [N-(2-aminoethyl)-1 aziridine-ethanamine, N-(2-aminoethyl)-1-aziridine-ethanamine]",ACE2 binding activity (velocity of ACE2),[1],Inhibits velocity of ACE2
same,ACE2/SARS spike protein interaction,[2],inhibited ACE2 interactions with SARS-CoV spike protein; also recorded: Inhibits ACE2/SARS spike protein interaction
same,SARS S-glycoprotein-mediated cell fusion,[2],effective in blocking the SARS coronavirus spike protein-mediated cell fusion; also recorded: inhibits SARS S-glycoprotein-mediated cell fusion; also recorded: inhibition of SARS S-glycoprotein-mediated cell fusion
CC(CCc1ccccc1)NCC(O)c1ccc(O)c(C(N)=O)c1 (centres unmarked) [labetalol],ACE2 binding activity (velocity of ACE2),[1],Enhanced velocity of ACE2
"O=c1c(O)c(-c2cc(O)c(O)c(O)c2)oc2cc(O)cc(O)c12 [Myricetin, myricetin]",in vitro activity against SARS-CoV-2,[3],observed to have in vitro activity
N=C(N)c1ccc(/N=N/Nc2ccc(C(=N)N)cc2)cc1 [diminazene],ACE2 binding activity (velocity of ACE2),[1],Enhanced velocity of ACE2
"NCCNCCNCCN [Triethylenetetramine, triethylenetetramine]",ACE2 binding activity (velocity of ACE2),[1],Inhibits velocity of ACE2
same,ACE2/SARS spike protein interaction,[2],Inhibits ACE2/SARS spike protein interaction
CN(C)CCC(c1ccc(Cl)cc1)c1ccccn1 (centres unmarked) [chlorpheniramine],Odds ratio,[4],0.23
same,correlation of usage with protection from SARS-CoV-2 infection,[4],correlated with protection from SARS-CoV-2 infection
LQSYGFQPTNGV peptide,immune response in mice,[5],induced a strong immune response
same,lungs at gross necropsy,[6],some damage/abscesses in the lungs
same,survival at 5 dpi,[6],survived 5 dpi
same,viral load in the lungs (plaque forming units),[6],low plaque forming units per liter in the lungs
CC(CN1c2ccccc2Sc2ccccc21)N(C)C (centres unmarked) [Promethazine],reduction of viral replication in vitro,[7],~100 ×
OCCOCCN1CCN(C(c2ccccc2)c2ccc(Cl)cc2)CC1 (centres unmarked) [hydroxyzine],level of SARS-CoV-2 mRNA expressed in the cells,[8],significantly lowered
same,direct antiviral activity against SARS-CoV-2 isolates in vitro,[9],exhibited direct antiviral activity
same,EC50,[9],15.3 µg/mL
same,Odds ratio,[4],0.76
same,ACE2 binding activity (velocity of ACE2),[1],inhibited ACE2 activity; also recorded: Inhibited velocity of ACE2
same,viral burden,[3],lowered viral burden to below the level of detection
same,EC50,"[3]; Severe acute respiratory syndrome coronavirus 2, Vero C1008, 48 h, read-out: EC50, viral burden by plaque assay",11.3 µg/mL
same,EC50,"[3]; Severe acute respiratory syndrome coronavirus 2, Vero C1008, read-out: anti-SARS-CoV-2 activity EC50",11.3 µg/mL
same,50% cytotoxic concentration,[10],approximately 50 μg/ml
"CN(C)CC/C=C1/c2ccccc2Sc2ccc(Cl)cc21.Cl [Minithixen, Chlorprothixene hydrochloride]",ACE2 binding activity (velocity of ACE2),[1]; hydrochloride,Inhibited velocity of ACE2
CN1CCCC(n2nc(Cc3ccc(Cl)cc3)c3ccccc3c2=O)CC1 (centres unmarked) [azelastine],direct antiviral activity against SARS-CoV-2 isolates in vitro,[9],exhibited direct antiviral activity
same,EC50,[9],2.24 µg/mL
same,Odds ratio,[4],0.16
same,correlation of usage with protection from SARS-CoV-2 infection,[4],correlated with protection from SARS-CoV-2 infection
CN(C)CCC(c1ccc(Br)cc1)c1ccccn1 (centres unmarked) [Brompheniramine],Odds ratio,[4],0.76
"CCN(CC)CCCN(c1ccccc1)C1Cc2ccccc2C1 [Aprindine, aprindine]",ACE2 binding activity (velocity of ACE2),[1],Inhibited velocity of ACE2
CN(C)CCOC(c1ccccc1)c1ccccc1 [diphenhydramine],direct antiviral activity against SARS-CoV-2 isolates in vitro,[9],exhibited direct antiviral activity
